Results from patent publication US10626144B2, “Peptide derivatives and uses thereof” (Nosopharm, priority 2014, dated 2020).
Square brackets hold non-standard residues; d marks the D form. Peptide text beside a SMILES is read from it. * marks the point of attachment. Dab(3S-OH) = NC[C@H](O)[C@H](N)C(=O)O; ΔZArg = N=C(N)NCC/C=C(\N)C(=O)O; Cit = NC(=O)NCCC[C@H](N)C(=O)O; aThr = C[C@H](O)[C@H](N)C(=O)O; AllylGly = C=CC[C@H](N)C(=O)O; hLys = NCCCCC[C@H](N)C(=O)O; dOrn = NCCC[C@@H](N)C(=O)O; NH(CH2)4NH2 = NCCCCN*

What was measured:
Experiment in all cases: MIC, broth microdilution (CLSI), reference strain
Conditions in all cases: CAMHB
[1] = test system: Pseudomonas aeruginosa ATCC 27853
[2] = test system: Escherichia coli ATCC 25922
[3] = test system: Staphylococcus aureus ATCC 13709
[4] = test system: Acinetobacter baumannii ATCC 19606

SMILES | Pa: MIC Pseudomonas aeruginosa ATCC 27853 [1] | Ec: MIC Escherichia coli ATCC 25922 [2] | Sa: MIC Staphylococcus aureus ATCC 13709 [3] | Ab: MIC Acinetobacter baumannii ATCC 19606 [4]
C[C@H](NC(=O)[C@@H](NC(=O)[C@@H](N)CCCCN)[C@@H](O)CN)C(=O)NCC(=O)N[C@H](CCCN)C(=O)N1CCC[C@H]1C(=O)N[C@H](C(=O)N[C@@H](CCCCN)C(=O)N/C(=C\CCNC(=N)N)C(=O)O)[C@H](C)O [24.110] (H-K[Dab(3S-OH)]AG[dOrn]P[aThr]K[ΔZArg]-OH) | − (>32 μg/mL) | − (>32 μg/mL) | + (≤32 μg/mL) | − (>32 μg/mL)
C=CC[C@H](NC(=O)[C@@H]1CCCN1C(=O)[C@@H](CCCN)NC(=O)CNC(=O)[C@H](C)NC(=O)[C@@H](NC(=O)[C@@H](N)CCCCN)[C@@H](O)CN)C(=O)N[C@@H](CCCCN)C(=O)N/C(=C\CCNC(=N)N)C(=O)O [24.111] (H-K[Dab(3S-OH)]AG[dOrn]P[AllylGly]K[ΔZArg]-OH) | − (>32 μg/mL) | + (≤32 μg/mL) | ++ (≤8 μg/mL) | − (>32 μg/mL)
C[C@H](NC(=O)[C@@H](NC(=O)[C@@H](N)CCCCN)[C@@H](O)CN)C(=O)NCC(=O)N[C@H](CCCN)C(=O)N1CCC[C@H]1C(=O)N[C@@H](CCCNC(N)=O)C(=O)N[C@@H](CCCCN)C(=O)N/C(=C\CCNC(=N)N)C(=O)O [24.116] (H-K[Dab(3S-OH)]AG[dOrn]P[Cit]K[ΔZArg]-OH) | − (>32 μg/mL) | − (>32 μg/mL) | + (≤32 μg/mL) | − (>32 μg/mL)
C[C@H](NC(=O)[C@@H](NC(=O)[C@@H](N)CCCCN)[C@@H](O)CN)C(=O)NCC(=O)N[C@H](CCCN)C(=O)N1CCC[C@H]1C(=O)N[C@@H](CCC(N)=O)C(=O)N[C@@H](CCCCN)C(=O)N/C(=C\CCNC(=N)N)C(=O)O [24.117] (H-K[Dab(3S-OH)]AG[dOrn]PQK[ΔZArg]-OH) | − (>32 μg/mL) | − (>32 μg/mL) | + (≤32 μg/mL) | − (>32 μg/mL)
C[C@H](NC(=O)[C@@H](NC(=O)[C@@H](N)CCCCN)[C@@H](O)CN)C(=O)NCC(=O)N[C@H](CCCN)C(=O)N1CCC[C@H]1C(=O)N[C@@H](CCC(=O)O)C(=O)N[C@@H](CCCCN)C(=O)N/C(=C\CCNC(=N)N)C(=O)N[C@@H](CCCCN)C(=O)NCCCCN [24.118] (H-K[Dab(3S-OH)]AG[dOrn]PEK[ΔZArg]K-{NH(CH2)4NH2}) | − (>32 μg/mL) | − (>32 μg/mL) | ++ (≤8 μg/mL) | − (>32 μg/mL)
COC(=O)CC[C@H](NC(=O)[C@@H]1CCCN1C(=O)[C@@H](CCCN)NC(=O)CNC(=O)[C@H](C)NC(=O)[C@@H](NC(=O)[C@@H](N)CCCCN)[C@@H](O)CN)C(=O)N[C@@H](CCCCN)C(=O)N/C(=C\CCNC(=N)N)C(=O)O [24.120] (H-K[Dab(3S-OH)]AG[dOrn]PE(OMe)K[ΔZArg]-OH) | − (>32 μg/mL) | + (≤32 μg/mL) | − (>32 μg/mL) | − (>32 μg/mL)
C[C@H](NC(=O)[C@@H](NC(=O)[C@@H](N)CCCCN)[C@@H](O)CN)C(=O)NCC(=O)N[C@H](CCCN)C(=O)N1CCC[C@H]1C(=O)N[C@@H](Cc1cnc[nH]1)C(=O)N[C@@H](CCCCCN)C(=O)N[C@H](CCCNC(=N)N)C(N)=O [24.121] (H-K[Dab(3S-OH)]AG[dOrn]PH[hLys][dR]-NH2) | − (>32 μg/mL) | − (>32 μg/mL) | ++ (≤8 μg/mL) | − (>32 μg/mL)
C[C@H](NC(=O)[C@@H](NC(=O)[C@@H](N)CCCCN)[C@@H](O)CN)C(=O)NCC(=O)N[C@H](CCCN)C(=O)N1CCC[C@H]1C(=O)N[C@@H](Cc1cnc[nH]1)C(=O)N[C@@H](CCCCN)C(=O)N[C@H](CCCNC(=N)N)C(=O)O [24.122] (H-K[Dab(3S-OH)]AG[dOrn]PHK[dR]-OH) | − (>32 μg/mL) | − (>32 μg/mL) | − (>32 μg/mL) | − (>32 μg/mL)
CC[C@H](C)[C@H](NC(=O)/C(=C/CCNC(=N)N)NC(=O)[C@H](CCCCN)NC(=O)[C@H](Cc1cnc[nH]1)NC(=O)[C@@H]1CCCN1C(=O)[C@@H](CCCN)NC(=O)CNC(=O)[C@H](C)NC(=O)[C@@H](NC(=O)[C@@H](N)CCCCN)[C@@H](O)CN)C(=O)O [24.123] (H-K[Dab(3S-OH)]AG[dOrn]PHK[ΔZArg]I-OH) | − (>32 μg/mL) | − (>32 μg/mL) | + (≤32 μg/mL) | − (>32 μg/mL)
